The text below walks through data of ChEMBL document CHEMBL3259590, “The discovery of diazepinone-based 5-HT3 receptor partial agonists” (Bioorg Med Chem Lett, 2014).

Series [1] has as its system Mus musculus. As to the kind of experiment: Inhibition of 5-HT induced-bradycardia in ICR mouse von Bezold-Jarisch reflex model at 1 mg/kg, po after 60 mins relative to control. In kind it is functional. The settings on record: 1 h.
Series [2] can be described thus: Intrinsic clearance in human liver microsomes. In kind it is ADME. The conditions noted are these: read-out: CLH. A general note: Liver microsomes are a subcellular fraction often used to study metabolism.
The target of series [3] is Cytochrome P450 2C9 (Homo sapiens, UniProt P11712). As to the kind of experiment: Inhibition of CYP2C9 (unknown origin). It counts as ADME.
Series [4] concerns the target T1, 5-hydroxytryptamine receptor 3A (Homo sapiens) (UniProt P46098).
T1 sequence (whole entry): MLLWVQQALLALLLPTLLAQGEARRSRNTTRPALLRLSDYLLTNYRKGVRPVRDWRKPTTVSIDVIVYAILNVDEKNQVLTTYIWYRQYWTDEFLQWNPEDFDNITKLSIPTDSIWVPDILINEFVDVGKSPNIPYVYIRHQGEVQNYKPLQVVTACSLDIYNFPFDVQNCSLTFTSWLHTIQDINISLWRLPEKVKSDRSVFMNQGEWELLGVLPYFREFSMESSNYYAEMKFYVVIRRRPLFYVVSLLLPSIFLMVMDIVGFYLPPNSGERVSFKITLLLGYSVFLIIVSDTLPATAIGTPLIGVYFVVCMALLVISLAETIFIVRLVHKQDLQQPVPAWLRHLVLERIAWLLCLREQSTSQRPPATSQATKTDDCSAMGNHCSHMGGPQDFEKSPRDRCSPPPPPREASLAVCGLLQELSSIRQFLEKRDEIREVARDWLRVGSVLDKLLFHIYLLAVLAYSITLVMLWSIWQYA
Description: Partial agonist activity at human 5-HT3A receptor expressed in HEK293 cells assessed as change in Ca2+ level measured as intrinsic activity at 1 uM relative to 5-HT in presence of carbachol. It counts as cell-based.

Series [5] concerns the target Cytochrome P450 2C19 (Homo sapiens, UniProt P33261). Description: Inhibition of CYP2C19 (unknown origin). In kind it is ADME.
The target in series [6] is T2, Cytochrome P450 2B6 (Homo sapiens, UniProt P20813).
T2 sequence (P20813 whole entry): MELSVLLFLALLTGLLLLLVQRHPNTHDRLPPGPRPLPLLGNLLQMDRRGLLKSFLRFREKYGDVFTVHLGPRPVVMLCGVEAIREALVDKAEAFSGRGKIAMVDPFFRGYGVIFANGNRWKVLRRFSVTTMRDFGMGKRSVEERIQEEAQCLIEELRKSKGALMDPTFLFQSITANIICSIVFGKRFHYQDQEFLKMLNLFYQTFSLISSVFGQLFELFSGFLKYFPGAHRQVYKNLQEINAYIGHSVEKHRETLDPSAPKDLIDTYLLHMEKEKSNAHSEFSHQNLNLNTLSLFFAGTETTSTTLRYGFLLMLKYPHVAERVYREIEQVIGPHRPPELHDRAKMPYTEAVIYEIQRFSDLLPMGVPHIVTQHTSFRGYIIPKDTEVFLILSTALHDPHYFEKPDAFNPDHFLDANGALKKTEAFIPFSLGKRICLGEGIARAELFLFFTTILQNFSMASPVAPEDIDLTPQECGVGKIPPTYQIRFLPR
As to the kind of experiment: Inhibition of CYP2B6 (unknown origin). In kind it is ADME.

In series [7] the target is Cytochrome P450 2D6 (Homo sapiens, UniProt P10635). Description: Inhibition of CYP2D6 (unknown origin). In kind it is ADME.
The target of series [8] is T3, 5-hydroxytryptamine receptor 3A (Mus musculus, UniProt P23979).
T3 sequence (P23979 whole entry): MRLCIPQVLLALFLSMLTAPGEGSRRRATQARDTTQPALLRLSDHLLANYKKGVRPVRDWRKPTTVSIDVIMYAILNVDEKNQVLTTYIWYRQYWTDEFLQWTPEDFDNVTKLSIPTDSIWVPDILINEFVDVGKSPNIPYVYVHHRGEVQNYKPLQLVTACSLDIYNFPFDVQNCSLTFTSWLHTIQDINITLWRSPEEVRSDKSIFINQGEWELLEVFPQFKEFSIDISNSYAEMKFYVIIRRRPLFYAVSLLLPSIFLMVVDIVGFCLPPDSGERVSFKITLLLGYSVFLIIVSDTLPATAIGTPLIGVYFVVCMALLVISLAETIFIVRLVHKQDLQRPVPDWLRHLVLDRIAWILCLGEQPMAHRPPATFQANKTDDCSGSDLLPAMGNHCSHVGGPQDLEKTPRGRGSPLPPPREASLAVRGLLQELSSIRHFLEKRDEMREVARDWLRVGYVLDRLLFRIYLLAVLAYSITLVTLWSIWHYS
Description: Agonist activity at mouse 5-HT3A receptor expressed in HEK293 cells in presence of carbachol. It counts as cell-based.

Series [9] concerns the target T4, 5-hydroxytryptamine receptor 3A (Homo sapiens, UniProt P46098).
T4 sequence (P46098 whole entry): T1 sequence (whole entry)
As to the kind of experiment: Agonist activity at human 5-HT3A receptor expressed in HEK293 cells in presence of carbachol. It counts as cell-based.

The target of series [10] is T5, Cytochrome P450 1A2 (Homo sapiens, UniProt P05177).
T5 sequence (P05177 whole entry): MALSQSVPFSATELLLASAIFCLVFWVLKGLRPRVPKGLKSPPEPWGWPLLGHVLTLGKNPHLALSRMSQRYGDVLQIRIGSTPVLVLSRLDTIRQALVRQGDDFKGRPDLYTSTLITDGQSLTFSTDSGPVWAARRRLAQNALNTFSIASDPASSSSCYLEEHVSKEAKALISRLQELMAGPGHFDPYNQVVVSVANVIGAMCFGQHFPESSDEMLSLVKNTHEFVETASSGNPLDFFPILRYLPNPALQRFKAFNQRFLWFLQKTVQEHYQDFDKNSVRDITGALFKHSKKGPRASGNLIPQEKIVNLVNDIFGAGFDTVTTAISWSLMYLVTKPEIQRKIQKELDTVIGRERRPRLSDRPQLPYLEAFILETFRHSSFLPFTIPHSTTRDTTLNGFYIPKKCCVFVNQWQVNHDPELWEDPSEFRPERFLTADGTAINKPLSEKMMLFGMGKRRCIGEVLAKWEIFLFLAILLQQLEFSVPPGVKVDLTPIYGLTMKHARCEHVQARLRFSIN
Description: Inhibition of CYP1A2 (unknown origin). It counts as ADME.

Series [11] deals with Cytochrome P450 3A4 (Homo sapiens, UniProt P08684). As to the kind of experiment: Inhibition of CYP3A4 (unknown origin). It counts as ADME.
For series [12], the target named is T6, 5-hydroxytryptamine receptor 3A (Mus musculus) (UniProt P23979).
T6 sequence (whole entry): T3 sequence (P23979 whole entry)
As to the kind of experiment: Partial agonist activity at mouse 5-HT3A receptor expressed in HEK293 cells assessed as change in Ca2+ level measured as intrinsic activity at 1 uM relative to 5-HT in presence of carbachol. It counts as cell-based.

Series [13] deals with T4, 5-hydroxytryptamine receptor 3A. Description: Displacement of [9-methyl-3H]BRL-43694 from human 5-HT3A receptor after overnight incubation by scintillation proximity assay. A general note: SPA uses beads or plates that emit light when radiolabelled molecules are held near them.
The subject of series [14] is Mus musculus. Description: Inhibition of 5-HT induced-bradycardia in ICR mouse von Bezold-Jarisch reflex model at 3 mg/kg, po after 60 mins relative to control. In kind it is functional. The conditions noted are these: 1 h.

Where only a bound is given, the exact number is not on record here.

Cytochrome P450 2C9, sequence (P11712 whole entry): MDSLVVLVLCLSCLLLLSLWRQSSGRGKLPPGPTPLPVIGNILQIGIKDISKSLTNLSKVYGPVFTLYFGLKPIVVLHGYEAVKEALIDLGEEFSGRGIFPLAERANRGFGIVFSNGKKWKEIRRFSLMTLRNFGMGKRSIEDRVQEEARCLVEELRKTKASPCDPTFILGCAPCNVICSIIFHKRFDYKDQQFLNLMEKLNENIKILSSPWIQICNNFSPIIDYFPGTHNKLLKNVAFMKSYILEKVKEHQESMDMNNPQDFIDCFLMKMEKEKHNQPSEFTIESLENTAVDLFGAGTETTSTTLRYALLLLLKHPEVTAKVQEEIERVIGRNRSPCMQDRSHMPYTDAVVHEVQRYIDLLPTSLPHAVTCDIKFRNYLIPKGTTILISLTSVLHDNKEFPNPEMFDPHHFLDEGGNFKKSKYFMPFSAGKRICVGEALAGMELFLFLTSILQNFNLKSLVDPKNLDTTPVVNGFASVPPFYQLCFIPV
Cytochrome P450 2D6, sequence (P10635 whole entry): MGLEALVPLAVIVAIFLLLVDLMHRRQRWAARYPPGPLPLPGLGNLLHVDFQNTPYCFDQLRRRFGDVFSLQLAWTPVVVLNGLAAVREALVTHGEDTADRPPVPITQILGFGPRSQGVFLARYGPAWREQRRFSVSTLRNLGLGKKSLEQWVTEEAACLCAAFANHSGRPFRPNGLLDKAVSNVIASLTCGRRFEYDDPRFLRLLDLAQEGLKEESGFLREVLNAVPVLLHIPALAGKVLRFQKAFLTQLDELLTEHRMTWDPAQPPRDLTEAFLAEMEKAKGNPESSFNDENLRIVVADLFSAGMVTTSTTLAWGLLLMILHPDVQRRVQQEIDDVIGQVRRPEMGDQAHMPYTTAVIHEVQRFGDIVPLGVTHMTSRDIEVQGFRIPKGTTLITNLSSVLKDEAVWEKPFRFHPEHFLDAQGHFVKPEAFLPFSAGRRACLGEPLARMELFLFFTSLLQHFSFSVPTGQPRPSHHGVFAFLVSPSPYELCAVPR
Cytochrome P450 3A4, sequence (P08684 whole entry): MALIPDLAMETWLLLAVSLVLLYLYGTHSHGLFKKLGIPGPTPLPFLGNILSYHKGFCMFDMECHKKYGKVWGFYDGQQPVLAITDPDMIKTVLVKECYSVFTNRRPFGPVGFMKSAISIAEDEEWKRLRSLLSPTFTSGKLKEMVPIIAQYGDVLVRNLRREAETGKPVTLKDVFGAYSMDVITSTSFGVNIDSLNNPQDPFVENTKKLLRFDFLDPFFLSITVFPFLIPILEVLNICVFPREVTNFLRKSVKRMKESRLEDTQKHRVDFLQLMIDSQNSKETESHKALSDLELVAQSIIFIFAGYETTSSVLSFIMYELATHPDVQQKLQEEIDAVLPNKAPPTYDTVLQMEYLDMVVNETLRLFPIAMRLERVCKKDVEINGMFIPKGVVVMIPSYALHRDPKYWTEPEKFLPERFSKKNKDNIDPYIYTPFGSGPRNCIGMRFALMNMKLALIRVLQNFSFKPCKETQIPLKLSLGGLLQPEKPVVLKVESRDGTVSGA
Cytochrome P450 2C19, sequence (P33261 whole entry): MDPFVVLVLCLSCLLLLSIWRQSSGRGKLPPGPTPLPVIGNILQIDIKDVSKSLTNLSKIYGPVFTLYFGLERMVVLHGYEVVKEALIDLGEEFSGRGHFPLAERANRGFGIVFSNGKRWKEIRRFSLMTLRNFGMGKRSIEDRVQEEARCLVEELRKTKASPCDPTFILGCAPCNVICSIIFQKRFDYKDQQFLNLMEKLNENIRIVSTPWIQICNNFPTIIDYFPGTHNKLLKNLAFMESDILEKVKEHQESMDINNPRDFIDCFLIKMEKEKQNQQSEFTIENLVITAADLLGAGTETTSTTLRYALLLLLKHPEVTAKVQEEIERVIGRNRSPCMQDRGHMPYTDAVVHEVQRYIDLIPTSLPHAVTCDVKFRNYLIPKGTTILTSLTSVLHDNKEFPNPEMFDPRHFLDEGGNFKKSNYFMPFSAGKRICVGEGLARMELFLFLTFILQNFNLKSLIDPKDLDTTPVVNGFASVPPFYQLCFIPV

`Cc1[nH]cnc1CN1CCc2c(c3ccccc3n2C)C1=O` [ALOSETRON] had an inhibition in vivo at 1 mg/kg in [1] of 95%. Also, the microsomal CLint in [2] was 3 µL/min/mg.
For the compound `O=C1c2cc(Cl)cc3cnn(c23)CCN1[C@@H]1CN2CCC1CC2`, the 50% inhibitory concentration (IC50) in series [3], in series [5], in series [6], in series [7], in [10] and in series [11] was above 50 µM each time. For the same compound, the Activity is 28% in series [4] and 27% in series [12]. Besides, in [2], the microsomal CLint came out at 3.1 µL/min/mg. The concentration for a half-maximal effect (EC50) in series [8] and in series [9] was 0.178 µM throughout.
With `Cc1cn2c3c(cc(Cl)cc13)C(=O)N([C@@H]1CN3CCC1CC3)CC2`, the microsomal CLint in [2] amounted to 2.3 µL/min/mg. In addition, the concentration for half-maximal inhibition (IC50) in series [10] was 8.8 µM.
Consider `O=C1c2cccc3ccn(c23)CCN1[C@@H]1CN2CCC1CC2`, for which, in series [13], the affinity, expressed as Ki, was 0.0031 µM. Besides, the IC50 in [3], in series [5], in series [6], in series [7], in [10] and in series [11] was above 50 µM in each case. The Activity in series [4] was determined as 7%. For the same compound, the microsomal CLint in series [2] is below 1.7 µL/min/mg. In addition, the concentration giving a half-maximal response (EC50) in series [9] is 0.178 µM.
Consider `O=C1c2cc(F)cc3cnn(c23)CCN1[C@@H]1CN2CCC1CC2`, for which affinity in series [13] was put at a Ki of 0.0064 µM. The IC50 in series [3], in series [5], in series [6], in series [7], in [10] and in series [11] was above 50 µM throughout. In addition, the Activity in series [4] worked out at 30%; in series [12], 31%. Further, the microsomal CLint in [2] is 8.8 µL/min/mg. Moreover, the EC50 in [8] and in series [9] was 0.178 µM each time.
Take `O=C1c2cccc3ccn(c23)CCN1[C@H]1CN2CCC1CC2`: in [13], the Ki came out at 0.0676 µM.
Take `Cc1cc2c3c(cnn3CCN([C@@H]3CN4CCC3CC4)C2=O)c1`: affinity in series [13] was put at a Ki of 0.0008 µM.
As to `O=C1c2cccc3[nH]c(=O)n(c23)CCN1[C@@H]1CN2CCC1CC2`, the affinity in series [13] corresponds to a Ki of 0.0057 µM. In addition, the half-maximal inhibitory concentration (IC50) in series [3], in series [5], in series [6], in [7], in series [10] and in series [11] was above 50 µM throughout. Besides, the Activity in series [4] stood at 83%. For the same compound, the microsomal CLint in [2] turned out to be 8.4 µL/min/mg. For the same compound, in series [9], the EC50 stood at 0.178 µM.
In turn, `O=C1c2cccc3cnn(c23)CCN1[C@@H]1CN2CCC1CC2` returned an inhibitory constant (Ki) in [13] of 0.0081 µM. Further, the IC50 in series [3], in [5], in series [6], in series [7], in [10] and in series [11] was above 50 µM throughout. Moreover, the Activity was determined as 19% in [4] and 16% in series [12]. Moreover, in series [2], the microsomal CLint was below 1.7 µL/min/mg. Moreover, the inhibition in vivo at 3 mg/kg in series [14] worked out at 77%. The concentration for a half-maximal effect (EC50) in series [8] and in [9] was 0.178 µM each time.
In turn, `COc1cc2c3c(cnn3CCN([C@@H]3CN4CCC3CC4)C2=O)c1` displayed a Ki in series [13] of 0.0135 µM. Further, the IC50 in series [3], in series [5], in series [6], in [7], in series [10] and in series [11] was above 50 µM each time. Further, the Activity worked out at 87% in series [4] and 81% in [12]. The microsomal CLint in [2] stood at 1.8 µL/min/mg. The 50% effective concentration (EC50) in series [8] and in [9] was 0.178 µM each time.

For orientation: inhibition in vivo means the relative decrease from the control value, in per cent. One may read the IC50 as the concentration that inhibits the measured activity by half. The term EC50 denotes the midpoint of the concentration-response curve. In general, Ki refers to a measure of affinity in units of concentration, obtained from inhibition or displacement.
